Values of other authors as cited in patent publication US20030175349A1, “Pharmaceutical compostion for extended/sustained release of a therapeutically active ingredient” (COUNCIL OF SCIENTIFIC AND INDUSTRIAL RESEARCH, priority 2002, published 2003).

solubility in water (in words)	parts of water in which 1 part is soluble (at 20° C.)	SMILES
slightly soluble in water	–	CC(=O)Oc1ccccc1C(=O)O [Aspirin, aspirin]
practically insoluble in water	–	Cc1ccc(S(=O)(=O)NC(=O)NN2CC3CCCC3C2)cc1 (stereo not drawn) [Gliclazide, gliclazide]
–	14 parts of water	CC(=O)OCC(COC(C)=O)OC(C)=O [triacetin]
